Measured values from publication PMC2138933 (The Journal of Experimental Medicine, 1971).

Assays:
[1] = system: purified guinea pig anti-a,DNP-Lys7-10 antibody; conditions: as measured by binding of DNP-OH or DNP-EACA; fluorescence quenching
[2] = system: purified anti-8,e,DNP-Lys8 antibody; type: binding, guinea pig; conditions: cross-reaction of anti-8,ε,DNP-Lys8 antibody with α,DNP-oligolysines

O=C(O)CCCCCNc1ccc([N+](=O)[O-])cc1[N+](=O)[O-] [DNP-EACA]
contribution of the haptenic group to the total binding energy of a,DNP-Lys9 [1]: about 70%

O=[N+]([O-])c1ccc(O)c([N+](=O)[O-])c1 [DNP-OH, 2,4,dinitrophenol]
contribution of the haptenic group to the total binding energy of a,DNP-Lys9 [1]: about 70%
contribution to the binding energy of α,DNP-oligolysines [2]: 93%
